The results in this text go back to patent US7589206B2, “Pyrrolopyridine derivatives” (Glaxo Group Limited, priority 2004, dated 2009).

pEC50: −log10 of the molar value. “Also recorded” adds a separate entry of the source. Counter-ions that a name gives are not always drawn. Like-named read-outs stand apart in the source and are kept apart here.

For orientation: pEC50 means −log10 of the EC50, conventionally taken in molar units. Usually Emax stands for the greatest response seen or fitted, relative to the assay's reference.

Common to all, as to format: cell-based
The target in assay [1] is T1, human recombinant CB2 receptors (Homo sapiens, UniProt P34972).
T1 construct: expressed in transfected cells; host or cells: CHO-K1 CB2 CRE-LUC cells
Briefly: CB2 agonist effects in a reporter gene assay (CHO-K1 CB2 CRE-LUC cells, inhibition of forskolin response). The following applies: 'active except' = excluded from the actives, i.e. not active. As to the method:
CB2 agonist effects were determined using a reporter gene assay. These studies were performed using a CHO-K1 cell line expressing human recombinant CB2 receptors (CHO-K1 CB2 CRE-LUC cells). These cells additionally express a “CRE-LUC” reporter gene construct comprising the gene for luciferase under the control of multiple cAMP response element binding protein promoters. In these cells, increases in intracellular cAMP levels leads to transcription of the luciferase gene and the subsequent production of luciferase. The expression of luciferase is measured by addition to the cells of a proprietary mixture containing luciferin, the substrate for luciferase (Luclite, Perkin Elmer, Cat No 6016919). The resultant reaction leads to the generation of light which is measured in a TopCount scintillation counter. […]
CHO-K1 CB2 CRE-LUC cells were grown in DMEM/F12 plus glutamax I medium (Gibco Cat. No. 31331-028), supplemented with 9% FBS (Gibco, Cat. No. 16000-040) and 0.5 mg·ml^−1 G418 (Gibco, Cat. No. 10131-027) and 0.5 mg·ml^−1 Hygromycin (Invitrogen, Cat. No. 10687-010). […] Finally, luminescence was measured using a Packard TopCount scintillation counter. Data Analysis For each compound maximal inhibition of the forskolin response and the EC50 for this effect was determined. […]
In general terms: In a reporter assay the amount or activity of a reporter protein is the signal.

For assay [2], the target named is T2, human cannabinoid CB2 receptor (Homo sapiens, UniProt P34972).
T2 construct: expressed in transfected cells; host or cells: Saccharomyces cerevisiae strain MMY23 (Gpa1/Galphai3 chimeric G-protein alpha subunit)
As to the kind of experiment: Cannabinoid CB2 receptor agonist activity in yeast cells expressing the receptor (FDGlu fluorescence). The following applies: for CB2 activity at the cloned human cannabinoid CB2 receptor (in words): b47 says only 'the assay used'. Here is the method:
The cannabinoid CB2 receptor agonist activity of compounds of formula (I) was determined in accordance with the following experimental method.
(§1) Yeast (Saccharomyces cerevisiae) cells expressing the human cannabinoid CB2 receptor were generated by integration of an expression cassette into the ura3 chromosomal locus of yeast strain MMY23. This cassette consisted of DNA sequence encoding the human CB2 receptor flanked by the yeast GPD promoter to the 5′ end of CB2 and a yeast transcriptional terminator sequence to the 3′ end of CB2. MMY23 expresses a yeast/mammalian chimeric G-protein alpha subunit in which the C-terminal 5 amino acids of Gpa1 are replaced with the C-terminal 5 amino acids of human Gαi3 (as described in Brown et al. (2000), Yeast 16:11-22). Cells were grown at 30° C. in liquid Synthetic Complete (SC) yeast media (Guthrie and Fink (1991), Methods in Enzymology, Vol. 194) lacking uracil, tryptophan, adenine and leucine to late logarithmic phase (approximately 6 OD600/m).
Agonists were prepared as 10 mM solutions in DMSO. EC50 values (the concentration required to produce 50% maximal response) were estimated using dilutions of between 3- and 5-fold (BiomekFX, Beckman) into DMSO. Agonist solutions in DMSO (1% final assay volume) were transferred into black microtitre plates from NUNC (96- or 384-well). Cells were suspended at a density of 0.2 OD600/ml in SC media lacking histidine, uracil, tryptophan, adenine and leucine and supplemented with 10 mM 3-aminotriazole, 0.1M sodium phosphate pH 7.0, and 20μM fluorescein di-β-D-glucopyranoside(FDGlu). This mixture (50 ul per well) was added to agonist in the assay plates (Multidrop 384, Labsystems). After incubation at 30° C. for 24 hours, fluorescence resulting from degradation of FDGlu to fluorescein due to exoglucanase, an endogenous yeast enzyme produced during agonist-stimulated cell growth, was determined using a fluorescence microtitre plate reader (Tecan Spectrofluor or LJL Analyst excitation wavelength: 485 nm; emission wavelength: 535 nm). Fluorescence was plotted against compound concentration and iteratively curve fitted using a four parameter fit to generate a concentration effect value. Efficacy (Emax) was calculated from the equation Emax=Max[compound X]−Min[compound X]/Max[HU210]−Min[HU210]×100%
(§2) where Max[compound X] and Min[compound X] are the fitted maximum and minimum respectively from the concentration effect curve for compound X, and Max[HU210] and Min[HU210] are the fitted maximum and minimum respectively from the concentration effect curve for (6aR,10aR)-3-(1,1′-Dimethylheptyl)-6a,7,10,10a-tetrahydro-1-hydroxy-6,6-dimethyl-6H-dibenzo[b,d]pyran-9-methanol (HU210; available from Tocris). Equieffective molar ratio (EMR) values were calculated from the equation EMR=EC50 [compound X]/EC50 [HU210]
(§3) Where EC50 [compound X] is the EC50 of compound X and EC50 [HU210] is the EC50 of HU210.

Assay [3] concerns the target T3, human cannabinoid CB1 receptor (Homo sapiens, UniProt P21554).
T3 construct: expressed in transfected cells; host or cells: Saccharomyces cerevisiae strain MMY23 (Gpa1/Galphai3 chimeric G-protein alpha subunit)
As to the kind of experiment: Cannabinoid CB1 receptor agonist activity in yeast cells expressing the receptor (FDGlu fluorescence). The following applies: yeast assay, individual values of the exceptions; for pEC50: read-out: EC50 at the cloned human cannabinoid CB1 receptor; for Emax: relative to HU210, read-out: efficacy (Emax) at the cloned human cannabinoid CB1 receptor. As to the method:
The cannabinoid CB1 receptor agonist activity of compounds of formula (I) was determined in accordance with the following experimental method.
as §1, with “CB1” for “CB2”, “CB1.” for “CB2.”, “OD600/ml).” for “OD600/m).”
Agonists were prepared as 10 mM stocks in DMSO. EC50 values (the concentration required to produce 50% maximal response) were estimated using dilutions of between 3- and 5-fold (BiomekFX, Beckman) into DMSO. Agonist solutions in DMSO (1% final assay volume) were transferred into black, clear bottom, microtitre plates from NUNC (96- or 384-well). Cells were suspended at a density of 0.2 OD600/ml in SC media lacking histidine, uracil, tryptophan, adenine and leucine and supplemented with 10 mM 3-aminotriazole, 0.1M sodium phosphate pH 7.0, and 20 μM fluorescein di-β-D-glucopyranoside (FDGlu). This mixture (50 ul per well for 384-well plates, 200 ul per well for 96-well plates) was added to agonist in the assay plates (Multidrop 384, Labsystems). After incubation at 30° C. for 24 hours, fluorescence resulting from degradation of FDGlu to fluorescein due to exoglucanase, an endogenous yeast enzyme produced during agonist-stimulated cell growth, was determined using a Spectrofluor microtitre plate reader (Tecan; excitation wavelength: 485 nm; emission wavelength: 535 nm). Fluorescence was plotted against compound concentration and iteratively curve fitted using a four parameter fit to generate a concentration effect value. Efficacy (Emax) was calculated from the equation Emax=Max[compound X]−Min[compound X]/Max[HU210]−Min[HU210]×100%
as §2, §3

T2 sequence (P34972 whole entry): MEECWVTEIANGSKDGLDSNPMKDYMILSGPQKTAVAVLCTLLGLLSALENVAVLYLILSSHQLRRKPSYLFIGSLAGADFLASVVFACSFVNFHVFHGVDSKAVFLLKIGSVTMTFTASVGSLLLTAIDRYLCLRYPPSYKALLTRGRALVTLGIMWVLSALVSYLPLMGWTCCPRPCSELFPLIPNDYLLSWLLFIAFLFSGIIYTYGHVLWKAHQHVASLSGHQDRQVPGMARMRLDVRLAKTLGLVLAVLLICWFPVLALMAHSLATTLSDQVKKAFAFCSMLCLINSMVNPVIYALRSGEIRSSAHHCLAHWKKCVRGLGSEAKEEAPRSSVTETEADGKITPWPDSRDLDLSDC
T3 sequence (P21554 whole entry): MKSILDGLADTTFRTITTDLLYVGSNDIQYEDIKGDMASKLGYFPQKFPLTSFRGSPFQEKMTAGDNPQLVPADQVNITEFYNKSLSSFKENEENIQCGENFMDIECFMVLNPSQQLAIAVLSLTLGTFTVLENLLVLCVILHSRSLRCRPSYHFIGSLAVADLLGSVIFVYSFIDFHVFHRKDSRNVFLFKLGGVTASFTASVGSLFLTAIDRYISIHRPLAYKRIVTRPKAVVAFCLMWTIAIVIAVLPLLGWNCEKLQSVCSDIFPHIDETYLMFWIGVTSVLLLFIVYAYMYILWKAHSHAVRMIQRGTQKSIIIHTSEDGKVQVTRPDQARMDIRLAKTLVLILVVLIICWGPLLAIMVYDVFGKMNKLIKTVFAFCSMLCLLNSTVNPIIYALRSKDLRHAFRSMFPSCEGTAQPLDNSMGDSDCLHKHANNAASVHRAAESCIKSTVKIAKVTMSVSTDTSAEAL
T1 sequence (P34972 whole entry): as the sequence (P34972 whole entry) above

For the compound `Cc1c[nH]c2c(N3CCOCC3)ncc(C(=O)NC3CCOCC3)c12.Cl` [Example 22, 3-methyl-7-morpholin-4-yl-1H-pyrrolo[2,3-c]pyridine-4-carboxylic acid (tetrahydro-pyran-4-yl)-amide], the “CB2 agonist activity in reporter gene assay (in words)” value in assay [1] is “active except”. In assay [2] (yeast assay), the “CB2 activity at the cloned human cannabinoid CB2 receptor (in words)” value was “inactive; also recorded: did not appear to have CB2 activity”.
As for `Cc1c[nH]c2c(N3CCOCC3)ncc(C(=O)NCC3CCOCC3)c12.Cl` [Example 23, 3-methyl-7-morpholin-4-yl-1H-pyrrolo[2,3-c]pyridine-4-carboxylic acid (tetrahydro-pyran-4-ylmethyl)-amide], the “CB2 agonist activity in reporter gene assay (in words)” value in assay [1] is recorded as “active except”. Further, in assay [2] (yeast assay), the “CB2 activity at the cloned human cannabinoid CB2 receptor (in words)” value was “inactive; also recorded: did not appear to have CB2 activity”.
Turning to `CN(c1cccc(Cl)c1)c1ncc(C(=O)NCC2CCC2)c2c1ccn2C` [Example 67, 4-[(3-Chloro-phenyl)-methyl-amino]-1-methyl-1H-pyrrolo[3,2-c]pyridine-7-carboxylic acid cyclobutylmethyl amide hydrochloride], in assay [2], the pEC50 was 6.00 to 6.52.
With `COc1ccccc1Nc1ncc(C(=O)N2CCOCC2)c2c(C)c[nH]c12` [Example 72, 1-[7-(2-Methoxy-phenylamino)-3-methyl-1H-pyrrolo[2,3-c]pyridin-4-yl]-1-morpholin-4-yl-methanone hydrochloride salt], in assay [2], the pEC50 was 6.00 to 6.52.
`Cn1ccc2c(Nc3cc(Cl)cc(Cl)c3)ncc(C(=O)N3CCOCC3)c21` [Example 124, N-(3,5-Dichlorophenyl)-1-methyl-7-(4-morpholinylcarbonyl)-1H-pyrrolo[3,2-c]pyridin-4-amine hydrochloride]: in assay [3], the pEC50 was 6.29 and the Emax worked out at 75%.
On to `Cn1ccc2c(Nc3ccc(C#N)c(Cl)c3)ncc(C(=O)N3CCOCC3)c21` [Example 130, 2-Chloro-4-{[1-methyl-7-(4-morpholinylcarbonyl)-1H-pyrrolo[3,2-c]pyridin-4-yl]amino}benzonitrile hydrochloride], for which, in assay [3], the pEC50 was 6.05 and the maximum response (Emax) is 30%.
For `Cn1ccc2c(Nc3ccc(C#N)c(Br)c3)ncc(C(=O)N3CCOCC3)c21` [Example 162, 2-Bromo-4-{[1-methyl-7-(4-morpholinylcarbonyl)-1H-pyrrolo[3,2-c]pyridin-4-yl]amino}benzonitrile hydrochloride], in assay [3], the negative logarithm of the EC50 (pEC50) is 6.10 and the maximal effect (Emax) is 33%.
In the case of `Cc1cc(F)ccc1Nc1ncc(C(=O)N2CCOCC2)c2c1ccn2C` [Example 183, N-(4-Fluoro-2-methylphenyl)-1-methyl-7-(4-morpholinylcarbonyl)-1H-pyrrolo[3,2-c]pyridin-4-amine hydrochloride], the pEC50 in assay [2] (yeast assay, read-out: EC50 at the cloned human cannabinoid CB2 receptor) was 6.00 to 6.52.
As for `Cc1ccc(Nc2ncc(C(=O)N3CCOCC3)c3c2ccn3C)c(C)c1` [Example 184, N-(2,4-Dimethylphenyl)-1-methyl-7-(4-morpholinylcarbonyl)-1H-pyrrolo[3,2-c]pyridin-4-amine hydrochloride], the pEC50 in assay [2] is 6.00 to 6.52.
As to `Cn1ccc2c(Nc3cccc(Cl)c3)ncc(C(=O)N3CCSCC3)c21` [Example 237, N-(3-Chlorophenyl)-1-methyl-7-(4-thiomorpholinylcarbonyl)-1H-pyrrolo[3,2-c]pyridin-4-amine], in assay [3], the pEC50 was 6.13 and the Emax is 92%.
